Article PMC10669182, “Pyrazolo-triazolo-pyrimidine Scaffold as a Molecular Passepartout for the Pan-Recognition of Human Adenosine Receptors” (Biomolecules, 2023)
Where two headings read alike, the source gives them in different places.

How the values were obtained:
[1] = target: human A3 adenosine receptor; settings: [3H]NECA, geometric mean with 95% confidence limits, read-out: hA3 (Ki nM), cited from earlier work
[2] = target: human A1 adenosine receptor; settings: [3H]CCPA, geometric mean with 95% confidence limits, read-out: hA1 (Ki nM), cited from earlier work
hA2B adenosine receptor = target: hA2B adenosine receptor; set-up: method as in PMID 19501513, PMID 19908874; settings: NECA (5 μM)-stimulated adenylyl cyclase, hA2B-CHO membranes; geometric mean with 95% confidence limits; cited from earlier work
[3] = target: human A2A adenosine receptor; settings: [3H]NECA, geometric mean with 95% confidence limits, read-out: hA2A (Ki nM), cited from earlier work
[4] = target: T1, human A2B adenosine receptor (Homo sapiens, UniProt P29275); test: Radioligand binding, displacement of [3H]ZM241385 at human A2B receptors expressed in CHO cells; settings: 10 nM [3H]ZM241385, CHO cell membranes, 3 h room temperature; geometric mean with 95% confidence limits; reported for the first time; read-out: hA2B (Ki nM)
T1 construct: expressed in transfected cells; host or cells: CHO cells, stably transfected; membrane preparation
T1 sequence (P29275 1-332): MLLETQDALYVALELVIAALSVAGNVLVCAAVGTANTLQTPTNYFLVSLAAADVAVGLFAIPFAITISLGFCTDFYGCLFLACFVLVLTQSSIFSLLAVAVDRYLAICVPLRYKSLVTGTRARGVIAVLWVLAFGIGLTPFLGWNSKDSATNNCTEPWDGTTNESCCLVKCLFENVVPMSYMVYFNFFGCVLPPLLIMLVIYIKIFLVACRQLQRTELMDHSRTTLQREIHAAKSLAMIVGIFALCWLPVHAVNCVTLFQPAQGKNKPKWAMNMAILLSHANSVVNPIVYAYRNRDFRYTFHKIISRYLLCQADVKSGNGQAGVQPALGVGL
Method: All pharmacological methods followed the procedures described earlier. In brief, membranes for radioligand binding were prepared from CHO cells stably transfected with human adenosine receptor subtype (obtained as reported in reference) in a two-step procedure. In a first low-speed step (1000× g), cell fragments and nuclei were removed. The crude membrane fraction was sedimented from the supernatant at 100,000× g. The membrane pellet was resuspended in the buffer used for the respective binding experiments, frozen in liquid nitrogen, and stored at −80 °C.
Compounds were dissolved in DMSO and then diluted to the desired concentration in buffer, and at least 6 different concentrations were tested. DMSO in the final solution never exceeded 2%. For radioligand binding at A1 adenosine receptors, 1 nM [^3H]CCPA was used, whereas 30 and 10 nM [^3H]NECA were used for A2A and A3 receptors, respectively. Non-specific binding of [^3H]CCPA was determined in the presence of 1 mM theophylline; in the case of [^3H]NECA, 100 µM R-PIA was used. For radioligand binding assay of compounds 1–4 at A2B receptors, membranes (20 µg membrane protein) were incubated in a total volume of 200 µL (assay buffer: Tris/HCl pH 7.4, 10 mM MgCl2, 0.1% bovine serum albumin) with 10 nM [^3H]ZM241385. Non-specific binding of [^3H]ZM241385 was determined in the presence of 0.3 mM NECA. After 3 h at room temperature, samples were filtered and washed as described. Ki values from competition experiments were calculated with the program SCTFIT [32] and represented the mean of 3–6 replicates with 95% confidence limits.

[5] = CHO cell membranes, compounds 1-7

| Compound | Ki [1, 5] [nM] | Ki [2, 5] [nM] | IC50 (hA2B adenosine receptor) [nM] | Ki [3, 5] [nM] | Ki ([1]; CHO cells, compounds 8-12) [nM] | Ki ([2]; CHO cells, compounds 8-12) [nM] | Ki ([3]; CHO cells, compounds 8-12) [nM] | Ki [4] [nM] |
| --- | --- | --- | --- | --- | --- | --- | --- | --- |
| CCCCn1cc2c(nc(NC(=O)C(c3ccccc3)c3ccccc3)n3nc(-c4ccco4)nc23)n1 [Compound 4] | 1.2 | 129 | 780 | 114 |  |  |  |  |
| CCn1cc2c(nc(NC(=O)Cc3cccs3)n3nc(-c4ccco4)nc23)n1 [Compound 6] | 196 | 148 | > 10000 | 15.9 |  |  |  |  |
| CCCn1cc2c(nc(N)n3nc(-c4ccco4)nc23)n1 [Compound 10] |  |  |  |  | 408 | 10 | 2.51 |  |
| CCCCn1cc2c(nc(N)n3nc(-c4ccco4)nc23)n1 [Compound 11] |  |  |  |  | 600 | 14 | 1.6 |  |
| Cn1cc2c(nc(NC(=O)C(c3ccccc3)c3ccccc3)n3nc(-c4ccco4)nc23)n1 [Compound 1] | 0.25 | 139 | 363 | 216 |  |  |  | 29.1 |
| Cn1cc2c(nc(NC(=O)Cc3cccs3)n3nc(-c4ccco4)nc23)n1 [Compound 7] | 5.26 | 444 | > 10000 | 56 |  |  |  |  |
| Cn1cc2c(nc(N)n3nc(-c4ccco4)nc23)n1 [Compound 8] |  |  |  |  | 300 | 101 | 2.8 |  |
| CC(C)CCn1cc2c(nc(NC(=O)C(c3ccccc3)c3ccccc3)n3nc(-c4ccco4)nc23)n1 [Compound 5] | 5.86 | 441 | > 10000 | 159 |  |  |  |  |
| CCn1cc2c(nc(N)n3nc(-c4ccco4)nc23)n1 [Compound 9] |  |  |  |  | 331 | 5 | 1.95 |  |
| CC(C)CCn1cc2c(nc(N)n3nc(-c4ccco4)nc23)n1 [Compound 12] |  |  |  |  | 700 | 2 |  |  |
| CCn1cc2c(nc(NC(=O)C(c3ccccc3)c3ccccc3)n3nc(-c4ccco4)nc23)n1 [Compound 2] | 0.98 | 156 | 745 | 131 |  |  |  | 18.3 |
| CCCn1cc2c(nc(NC(=O)C(c3ccccc3)c3ccccc3)n3nc(-c4ccco4)nc23)n1 [Compound 3] | 0.93 | 80.2 | 491 | 46.5 |  |  |  | 13.3 |
